Reference: PubChem BioAssay (NCI)
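1) Cells in 96-well plates. 2) Compound, 48 h, 5 concentrations. 3) Linear interpolation between surrounding doses. 4) Unreached endpoint = highest concentration. The concentration for 50% growth inhibition is given as GI50. TGI is the concentration that stops growth completely.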

Experiments:
Assay in all cases: NCI tumour cell line growth inhibition, 48 h
786-0 renal = system: 786-0 renal
MCF7 breast = system: MCF7 breast
EKVX NSCLC = system: EKVX NSCLC
K-562 leukemia = system: K-562 leukemia
SR leukemia = system: SR leukemia
NCI-H23 lung = system: NCI-H23 lung
UACC-257 melanoma = system: UACC-257 melanoma
HCT-116 colon = system: HCT-116 colon
SF-295 CNS = system: SF-295 CNS
SN12C renal = system: SN12C renal
TK-10 renal = system: TK-10 renal
SNB-75 CNS = system: SNB-75 CNS
HOP-92 NSCLC = system: HOP-92 NSCLC
MALME-3M melanoma = system: MALME-3M melanoma
SK-MEL-5 melanoma = system: SK-MEL-5 melanoma
UACC-62 melanoma = system: UACC-62 melanoma
SF-539 CNS = system: SF-539 CNS
COLO 205 colon = system: COLO 205 colon
HL-60(TB) leukemia = system: HL-60(TB) leukemia
BT-549 breast = system: BT-549 breast
T-47D breast = system: T-47D breast
OVCAR-5 ovarian = system: OVCAR-5 ovarian
HCT-15 colon = system: HCT-15 colon
HOP-62 NSCLC = system: HOP-62 NSCLC
HS 578T breast = system: HS 578T breast
HT29 colon = system: HT29 colon
NCI-H522 lung = system: NCI-H522 lung
CCRF-CEM leukemia = system: CCRF-CEM leukemia
RXF 393 renal = system: RXF 393 renal
NCI-H460 lung = system: NCI-H460 lung
SF-268 CNS = system: SF-268 CNS
SK-MEL-28 melanoma = system: SK-MEL-28 melanoma
MDA-MB-435 = system: MDA-MB-435
LOX IMVI melanoma = system: LOX IMVI melanoma
CAKI-1 renal = system: CAKI-1 renal
RPMI-8226 leukemia = system: RPMI-8226 leukemia
OVCAR-3 ovarian = system: OVCAR-3 ovarian
OVCAR-4 ovarian = system: OVCAR-4 ovarian
NCI-H226 lung = system: NCI-H226 lung
OVCAR-8 ovarian = system: OVCAR-8 ovarian
SK-MEL-2 melanoma = system: SK-MEL-2 melanoma
KM12 colon = system: KM12 colon
DU-145 prostate = system: DU-145 prostate
IGROV1 ovarian = system: IGROV1 ovarian
A498 renal = system: A498 renal
HCC-2998 colon = system: HCC-2998 colon
ACHN renal = system: ACHN renal
M14 melanoma = system: M14 melanoma
NCI/ADR-RES ovarian = system: NCI/ADR-RES ovarian
SK-OV-3 ovarian = system: SK-OV-3 ovarian
SNB-19 CNS = system: SNB-19 CNS
PC-3 prostate = system: PC-3 prostate
UO-31 renal = system: UO-31 renal
MOLT-4 leukemia = system: MOLT-4 leukemia
MDA-MB-231 breast = system: MDA-MB-231 breast
U251 CNS = system: U251 CNS
SW-620 colon = system: SW-620 colon
A549 NSCLC = system: A549 NSCLC

O=C(CCl)Nc1ccc2c(Nc3cc(O)ccc3Cl)ncnc2c1
GI50 (786-0 renal): 1.24 µM
TGI (786-0 renal): 4.56 µM
GI50 (MCF7 breast): 1.07 µM
TGI (MCF7 breast): 5 µM
GI50 (EKVX NSCLC): 3.03 µM
TGI (EKVX NSCLC): 6.87 µM
GI50 (K-562 leukemia): 0.929 µM
TGI (K-562 leukemia): 7.23 µM
GI50 (SR leukemia): 0.758 µM
TGI (SR leukemia): 3.72 µM
GI50 (NCI-H23 lung): 2.73 µM
TGI (NCI-H23 lung): 7.1 µM
GI50 (UACC-257 melanoma): 4.02 µM
TGI (UACC-257 melanoma): 8.44 µM
GI50 (HCT-116 colon): 0.93 µM
TGI (HCT-116 colon): 3.99 µM
GI50 (SF-295 CNS): 2.58 µM
TGI (SF-295 CNS): 5.96 µM
GI50 (SN12C renal): 1.21 µM
TGI (SN12C renal): 4.06 µM
GI50 (TK-10 renal): 3.87 µM
TGI (TK-10 renal): 8.23 µM
GI50 (SNB-75 CNS): 3.28 µM
TGI (SNB-75 CNS): 6.56 µM
GI50 (HOP-92 NSCLC): 4.86 µM
TGI (HOP-92 NSCLC): 9.38 µM
GI50 (MALME-3M melanoma): 3.9 µM
TGI (MALME-3M melanoma): 8.1 µM
GI50 (SK-MEL-5 melanoma): 3.22 µM
TGI (SK-MEL-5 melanoma): 6.76 µM
GI50 (UACC-62 melanoma): 2.38 µM
TGI (UACC-62 melanoma): 5.98 µM
GI50 (SF-539 CNS): 3.38 µM
TGI (SF-539 CNS): 6.84 µM
GI50 (COLO 205 colon): 4.03 µM
TGI (COLO 205 colon): 8.06 µM
GI50 (HL-60(TB) leukemia): 1.15 µM
TGI (HL-60(TB) leukemia): 4.88 µM
GI50 (BT-549 breast): 2.02 µM
TGI (BT-549 breast): 5.81 µM
GI50 (T-47D breast): 3.51 µM
TGI (T-47D breast): 7.72 µM
GI50 (OVCAR-5 ovarian): 3.4 µM
TGI (OVCAR-5 ovarian): 7.03 µM
GI50 (HCT-15 colon): 0.773 µM
TGI (HCT-15 colon): 3.32 µM
GI50 (HOP-62 NSCLC): 3.27 µM
TGI (HOP-62 NSCLC): 7.17 µM
GI50 (HS 578T breast): 3.27 µM
TGI (HS 578T breast): 15.2 µM
GI50 (HT29 colon): 1.93 µM
TGI (HT29 colon): 5.78 µM
GI50 (NCI-H522 lung): 0.664 µM
TGI (NCI-H522 lung): 2.12 µM
GI50 (CCRF-CEM leukemia): 0.892 µM
TGI (CCRF-CEM leukemia): 3.02 µM
GI50 (RXF 393 renal): 3.37 µM
TGI (RXF 393 renal): 7.13 µM
GI50 (NCI-H460 lung): 2.33 µM
TGI (NCI-H460 lung): 6.4 µM
GI50 (SF-268 CNS): 2.65 µM
TGI (SF-268 CNS): 6.63 µM
GI50 (SK-MEL-28 melanoma): 3.66 µM
TGI (SK-MEL-28 melanoma): 7.97 µM
GI50 (MDA-MB-435): 2.21 µM
TGI (MDA-MB-435): 5.75 µM
GI50 (LOX IMVI melanoma): 0.818 µM
TGI (LOX IMVI melanoma): 3.64 µM
GI50 (CAKI-1 renal): 3.36 µM
TGI (CAKI-1 renal): 7.45 µM
GI50 (RPMI-8226 leukemia): 2.94 µM
TGI (RPMI-8226 leukemia): 7.66 µM
GI50 (OVCAR-3 ovarian): 1.71 µM
TGI (OVCAR-3 ovarian): 5.2 µM
GI50 (OVCAR-4 ovarian): 3.09 µM
TGI (OVCAR-4 ovarian): 7.44 µM
GI50 (NCI-H226 lung): 5.86 µM
TGI (NCI-H226 lung): 12.3 µM
GI50 (OVCAR-8 ovarian): 3.71 µM
TGI (OVCAR-8 ovarian): 10.1 µM
GI50 (SK-MEL-2 melanoma): 3.65 µM
TGI (SK-MEL-2 melanoma): 8.19 µM
GI50 (KM12 colon): 3.23 µM
TGI (KM12 colon): 7.11 µM
GI50 (DU-145 prostate): 2.39 µM
TGI (DU-145 prostate): 5.36 µM
GI50 (IGROV1 ovarian): 2.12 µM
TGI (IGROV1 ovarian): 6.32 µM
GI50 (A498 renal): 5.51 µM
TGI (A498 renal): 11.1 µM
GI50 (HCC-2998 colon): 4.9 µM
TGI (HCC-2998 colon): 9.81 µM
GI50 (ACHN renal): 2.87 µM
TGI (ACHN renal): 6.52 µM
GI50 (M14 melanoma): 3.3 µM
TGI (M14 melanoma): 7.26 µM
GI50 (NCI/ADR-RES ovarian): 3.55 µM
TGI (NCI/ADR-RES ovarian): 9.31 µM
GI50 (SK-OV-3 ovarian): 4.24 µM
TGI (SK-OV-3 ovarian): 7.94 µM
GI50 (SNB-19 CNS): 2.14 µM
TGI (SNB-19 CNS): 5.22 µM
GI50 (PC-3 prostate): 3.02 µM
TGI (PC-3 prostate): 6.79 µM
GI50 (UO-31 renal): 2.69 µM
TGI (UO-31 renal): 6 µM
GI50 (MOLT-4 leukemia): 0.846 µM
TGI (MOLT-4 leukemia): 4.03 µM
GI50 (MDA-MB-231 breast): 2.75 µM
TGI (MDA-MB-231 breast): 6.25 µM
GI50 (U251 CNS): 0.828 µM
TGI (U251 CNS): 2.97 µM
GI50 (SW-620 colon): 1.14 µM
TGI (SW-620 colon): 3.79 µM
GI50 (A549 NSCLC): 4.08 µM
TGI (A549 NSCLC): 8.26 µM
